Like-named read-outs stand apart in the source and are kept apart here.
Assays:
EGFR wild type = biological target: T1, EGFR wild type (Homo sapiens, UniProt P00533); assay: Inhibition of EGFR wild type biochemical enzymatic activity (HTRF); details: 1 mM ATP
T1 construct: purchased Carna Bio
In short: (§1)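 Kinase activity is measured by HTRF detection of biotinylated TK substrate (1 μM) phosphorylation at 1 mM ATP. Incubation lasts 1 h at room temperature before an EDTA stop, and IC50 is fitted with a four-parameter logistic model.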

A-431 = assay: Cell proliferation assay, A-431 cells (GI50, Table 6); assay type: cell-based
EGFR[T790M/C797S/L858R] = biological target: T2, EGFR[T790M/C797S/L858R] (Homo sapiens, UniProt P00533, C797S/L858R/T790M); assay: Inhibition of EGFR[T790M/C797S/L858R] biochemical enzymatic activity (HTRF); details: 1 mM ATP
T2 construct: purchased Carna Bio
In short: as §1

EGFR (d746-750 C797S) = biological target: T3, EGFR (d746-750 C797S) (Homo sapiens, UniProt P00533, C797S/DEL746-750); assay: Inhibition of EGFR (d746-750 C797S) biochemical enzymatic activity (HTRF); details: 1 mM ATP
T3 construct: purchased signalchem
In short: as §1

[1] = biological target: T4, EGFR[T790M/C797S/d746-750] (Homo sapiens, UniProt P00533, C797S/DEL746-750/T790M); assay: Inhibition of EGFR[T790M/C797S/d746-750] biochemical enzymatic activity (HTRF)
T4 construct: purchased Carna Bio
In short: as §1

PC-9 = assay: Cell proliferation assay, PC-9 cells (CellTiter-Glo, 72 hours); assay type: cell-based; details: PC9 cells, read-out: GI50 PC9
In short: (§2)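 Luminescent viable-cell counts were taken on a day 0 plate at dosing and again at endpoint. Proliferation was calculated as (sample − G0)/(DMSO − G0). Seeding was 5000 Ba/F3 or 500 PC-9 cells per well in RPMI1640, followed by overnight attachment and serial compound dilutions. The GI50 was fitted.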

EGFR L858R/T790M = biological target: T5, EGFR L858R/T790M (Homo sapiens, UniProt P00533, L858R/T790M); assay: Inhibition of EGFR L858R/T790M biochemical enzymatic activity (HTRF); details: 1 mM ATP
T5 construct: purchased Carna Bio
In short: as §1

[2] = tested on: Ba/F3 cells expressing EGFR mutations; assay: Cell proliferation assay, Ba/F3 cells expressing EGFR mutations (CellTiter-Glo, 72 hours); assay type: cell-based
In short: as §2

EGFR (C797S L858R) = biological target: T6, EGFR (C797S L858R) (Homo sapiens, UniProt P00533, C797S/L858R); assay: Inhibition of EGFR (C797S L858R) biochemical enzymatic activity (HTRF); details: 1 mM ATP
T6 construct: purchased signalchem
In short: as §1

EGFR L858R = biological target: T7, EGFR L858R (Homo sapiens, UniProt P00533, L858R); assay: Inhibition of EGFR L858R biochemical enzymatic activity (HTRF); details: 1 mM ATP
T7 construct: purchased Carna Bio
In short: as §1

EGFR Exon19Del = biological target: T8, EGFR Exon19Del (Homo sapiens, UniProt P00533, DEL746-750); assay: Inhibition of EGFR Exon19Del biochemical enzymatic activity (HTRF); details: read-out: IC50 @Del19
T8 construct: purchased Carna Bio
In short: as §1

EGFR Exon19Del/T790M = biological target: T9, EGFR Exon19Del/T790M (Homo sapiens, UniProt P00533, DEL746-750/T790M); assay: Inhibition of EGFR Exon19Del/T790M biochemical enzymatic activity (HTRF); details: 1 mM ATP
T9 construct: purchased Carna Bio
In short: as §1

[3] = EGFR WT, 1 h, room temperature, read-out: IC50 (nM) @WT
[4] = Homo sapiens, A-431, A-431 cells
[5] = EGFR T790M-C797S-L858R, 1 h, room temperature, read-out: IC50 (nM) @T790M- C797S - L858R
[6] = EGFR Del19-C797S, 1 h, room temperature, read-out: IC50 (nM) @Del19-C797S
[7] = EGFR T790M-C797S-Del19, 1 mM ATP, 1 h, room temperature, read-out: IC50 (nM) @T790M - C797S - Del19
[8] = EGFR L858R-T790M, 1 h, room temperature, read-out: IC50 (nM) @L858R-T790M
[9] = Mus musculus, BaF3, 72 h, BaF3 cells, EGFR DEL19 - C797S, read-out: GI50 DEL19 - C797S/BaF3
[10] = Mus musculus, BaF3, 72 h, BaF3 cells, EGFR DEL19 - T790-C797S, read-out: GI50 DEL19 - T790-C797S/BaF3
[11] = Mus musculus, BaF3, 72 h, BaF3 cells, EGFR L858R - C797S, read-out: GI50 L858R - C797S/BaF3
[12] = Mus musculus, BaF3, 72 h, BaF3 cells, EGFR L858R - T790-C797S, read-out: GI50 L858R - T790-C797S/BaF3
[13] = Mus musculus, BaF3, 72 h, BaF3 cells, EGFR L858R - T790M, read-out: GI50 L858R - T790M/BaF3
[14] = Mus musculus, BaF3, 72 h, BaF3 cells, EGFR L858R, read-out: GI50 L858R/BaF3
[15] = Mus musculus, BaF3, 72 h, EGFR DEL19 - T790M, read-out: GI50 DEL19 - T790M
[16] = EGFR L858-C797S, 1 h, room temperature, read-out: IC50 (nM) @L858-C797S
[17] = 1 h, room temperature, read-out: IC50 (nM) @L858R
[18] = EGFR Del19, 1 mM ATP, 1 h, room temperature
[19] = EGFR Del19-T790M, 1 h, room temperature, read-out: IC50 (nM) @Del19-T790M
[20] = EGFR wild type, 1 h at room temperature, read-out: IC50 @WT
[21] = EGFR[T790M/C797S/L858R], 1 h at room temperature, read-out: IC50 @T790M- C797S - L858R
[22] = EGFR (d746-750 C797S), 1 h at room temperature, read-out: IC50 @Del19-C797S
[23] = EGFR[T790M/C797S/d746-750], 1 mM ATP, 1 h at room temperature, read-out: IC50 @T790M - C797S - Del19
[24] = EGFR L858R/T790M, 1 h at room temperature, read-out: IC50 @L858R-T790M
[25] = BaF3 cells, EGFR DEL19 - C797S, read-out: GI50 DEL19 - C797S/BaF3
[26] = BaF3 cells, EGFR DEL19 - T790-C797S, read-out: GI50 DEL19 - T790-C797S/BaF3
[27] = BaF3 cells, EGFR L858R - C797S, read-out: GI50 L858R - C797S/BaF3
[28] = BaF3 cells, EGFR L858R - T790-C797S, read-out: GI50 L858R - T790-C797S/BaF3
[29] = BaF3 cells, EGFR L858R - T790M, read-out: GI50 L858R - T790M/BaF3
[30] = BaF3 cells, EGFR L858R, read-out: GI50 L858R/BaF3
[31] = EGFR DEL19 - T790M, read-out: GI50 DEL19 - T790M
[32] = EGFR (C797S L858R), 1 h at room temperature, read-out: IC50 @L858-C797S
[33] = 1 h at room temperature, read-out: IC50 @L858R
[34] = EGFR Exon19Del, 1 mM ATP, 1 h at room temperature
[35] = EGFR Exon19Del/T790M, 1 h at room temperature, read-out: IC50 @Del19-T790M

T4 sequence (P00533 with tags, fused parts or gaps DEL746-750/T790M/C797S limits assumed): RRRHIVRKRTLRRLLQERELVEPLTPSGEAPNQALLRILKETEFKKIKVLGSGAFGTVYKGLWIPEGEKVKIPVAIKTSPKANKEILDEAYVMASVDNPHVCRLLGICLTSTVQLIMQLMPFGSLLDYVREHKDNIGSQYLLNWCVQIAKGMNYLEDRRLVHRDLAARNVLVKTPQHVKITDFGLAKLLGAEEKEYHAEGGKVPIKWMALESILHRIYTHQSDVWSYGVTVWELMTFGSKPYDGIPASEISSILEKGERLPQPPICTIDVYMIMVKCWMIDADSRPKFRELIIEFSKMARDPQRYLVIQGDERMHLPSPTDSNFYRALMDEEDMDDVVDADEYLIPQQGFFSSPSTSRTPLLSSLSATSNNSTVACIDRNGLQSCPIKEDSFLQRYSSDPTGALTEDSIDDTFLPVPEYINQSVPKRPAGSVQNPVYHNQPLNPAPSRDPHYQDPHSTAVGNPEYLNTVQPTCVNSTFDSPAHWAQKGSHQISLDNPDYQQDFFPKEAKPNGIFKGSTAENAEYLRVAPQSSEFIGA
T1 sequence (P00533 25-1210): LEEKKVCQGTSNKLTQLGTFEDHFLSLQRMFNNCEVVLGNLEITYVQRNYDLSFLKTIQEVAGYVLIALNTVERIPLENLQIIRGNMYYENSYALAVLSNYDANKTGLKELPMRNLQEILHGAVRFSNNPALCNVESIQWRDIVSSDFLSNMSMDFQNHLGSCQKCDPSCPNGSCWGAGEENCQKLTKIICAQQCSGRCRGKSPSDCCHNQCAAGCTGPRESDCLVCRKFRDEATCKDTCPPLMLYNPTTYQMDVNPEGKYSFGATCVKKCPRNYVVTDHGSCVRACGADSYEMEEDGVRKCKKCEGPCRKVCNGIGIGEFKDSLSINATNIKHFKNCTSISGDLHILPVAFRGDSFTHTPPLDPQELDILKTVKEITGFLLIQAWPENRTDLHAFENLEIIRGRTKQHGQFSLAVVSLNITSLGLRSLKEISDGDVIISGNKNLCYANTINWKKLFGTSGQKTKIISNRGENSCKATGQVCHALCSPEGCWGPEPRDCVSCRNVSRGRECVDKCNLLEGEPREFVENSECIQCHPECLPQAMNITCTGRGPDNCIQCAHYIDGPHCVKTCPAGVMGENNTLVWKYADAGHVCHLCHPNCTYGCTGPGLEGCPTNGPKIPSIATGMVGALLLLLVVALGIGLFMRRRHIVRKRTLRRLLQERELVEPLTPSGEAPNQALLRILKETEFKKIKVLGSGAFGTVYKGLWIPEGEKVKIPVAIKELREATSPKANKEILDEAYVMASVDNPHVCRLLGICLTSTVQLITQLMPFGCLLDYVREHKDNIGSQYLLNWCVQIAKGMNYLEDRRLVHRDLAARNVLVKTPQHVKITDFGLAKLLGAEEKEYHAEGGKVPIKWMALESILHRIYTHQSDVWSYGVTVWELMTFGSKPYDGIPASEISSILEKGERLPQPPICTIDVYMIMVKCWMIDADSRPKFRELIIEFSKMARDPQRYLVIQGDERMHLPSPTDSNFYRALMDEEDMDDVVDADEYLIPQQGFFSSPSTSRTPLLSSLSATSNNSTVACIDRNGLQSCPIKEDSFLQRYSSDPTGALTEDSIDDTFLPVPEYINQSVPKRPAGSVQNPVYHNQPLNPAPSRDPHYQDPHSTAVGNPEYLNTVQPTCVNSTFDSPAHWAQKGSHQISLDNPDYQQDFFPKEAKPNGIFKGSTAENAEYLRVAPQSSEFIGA
T9 sequence (P00533 with tags, fused parts or gaps DEL746-750/T790M limits assumed): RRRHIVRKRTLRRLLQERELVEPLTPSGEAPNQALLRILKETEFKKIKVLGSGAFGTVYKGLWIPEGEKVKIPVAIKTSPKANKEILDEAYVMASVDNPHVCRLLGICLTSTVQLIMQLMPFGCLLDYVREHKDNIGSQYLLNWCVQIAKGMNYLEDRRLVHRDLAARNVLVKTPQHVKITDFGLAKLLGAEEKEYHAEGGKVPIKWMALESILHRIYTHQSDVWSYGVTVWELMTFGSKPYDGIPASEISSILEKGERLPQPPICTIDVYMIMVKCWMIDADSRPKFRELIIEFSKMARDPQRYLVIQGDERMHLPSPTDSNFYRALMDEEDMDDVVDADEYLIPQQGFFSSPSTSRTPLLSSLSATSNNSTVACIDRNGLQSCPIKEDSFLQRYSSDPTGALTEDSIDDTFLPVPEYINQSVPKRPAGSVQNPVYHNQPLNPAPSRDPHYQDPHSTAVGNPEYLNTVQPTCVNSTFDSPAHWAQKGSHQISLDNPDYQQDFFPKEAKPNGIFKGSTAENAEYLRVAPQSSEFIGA
T6 sequence (P00533 25-1210 C797S/L858R): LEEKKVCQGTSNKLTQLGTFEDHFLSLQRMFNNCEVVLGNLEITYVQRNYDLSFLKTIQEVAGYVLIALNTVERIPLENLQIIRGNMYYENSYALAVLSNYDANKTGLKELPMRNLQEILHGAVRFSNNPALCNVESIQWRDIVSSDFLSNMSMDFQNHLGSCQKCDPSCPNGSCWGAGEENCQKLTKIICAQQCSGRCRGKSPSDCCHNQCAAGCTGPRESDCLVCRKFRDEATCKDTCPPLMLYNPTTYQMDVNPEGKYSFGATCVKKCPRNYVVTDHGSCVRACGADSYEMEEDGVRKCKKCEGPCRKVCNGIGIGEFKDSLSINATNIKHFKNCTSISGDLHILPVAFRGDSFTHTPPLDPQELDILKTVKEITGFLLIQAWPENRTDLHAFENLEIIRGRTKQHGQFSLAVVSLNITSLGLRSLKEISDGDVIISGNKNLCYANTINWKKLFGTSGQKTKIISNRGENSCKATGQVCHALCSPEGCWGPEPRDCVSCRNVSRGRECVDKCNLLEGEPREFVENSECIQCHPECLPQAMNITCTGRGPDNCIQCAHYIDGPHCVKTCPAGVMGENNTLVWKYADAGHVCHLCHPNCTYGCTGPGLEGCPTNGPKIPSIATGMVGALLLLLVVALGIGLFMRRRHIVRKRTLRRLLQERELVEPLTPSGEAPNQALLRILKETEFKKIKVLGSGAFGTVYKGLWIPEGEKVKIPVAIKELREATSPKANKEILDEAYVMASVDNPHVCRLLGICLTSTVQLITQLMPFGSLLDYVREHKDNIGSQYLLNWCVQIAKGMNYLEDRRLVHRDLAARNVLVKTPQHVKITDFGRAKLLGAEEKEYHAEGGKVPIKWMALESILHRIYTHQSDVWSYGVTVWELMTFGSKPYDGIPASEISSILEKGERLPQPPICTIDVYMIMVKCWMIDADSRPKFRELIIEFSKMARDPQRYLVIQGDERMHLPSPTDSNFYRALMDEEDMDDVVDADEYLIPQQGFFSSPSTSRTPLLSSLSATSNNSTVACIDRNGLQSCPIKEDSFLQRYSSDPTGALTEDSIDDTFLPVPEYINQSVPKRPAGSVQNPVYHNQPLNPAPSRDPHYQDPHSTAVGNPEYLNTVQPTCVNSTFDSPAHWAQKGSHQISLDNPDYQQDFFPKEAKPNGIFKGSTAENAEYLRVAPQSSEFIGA
T7 sequence (P00533 25-1210 L858R): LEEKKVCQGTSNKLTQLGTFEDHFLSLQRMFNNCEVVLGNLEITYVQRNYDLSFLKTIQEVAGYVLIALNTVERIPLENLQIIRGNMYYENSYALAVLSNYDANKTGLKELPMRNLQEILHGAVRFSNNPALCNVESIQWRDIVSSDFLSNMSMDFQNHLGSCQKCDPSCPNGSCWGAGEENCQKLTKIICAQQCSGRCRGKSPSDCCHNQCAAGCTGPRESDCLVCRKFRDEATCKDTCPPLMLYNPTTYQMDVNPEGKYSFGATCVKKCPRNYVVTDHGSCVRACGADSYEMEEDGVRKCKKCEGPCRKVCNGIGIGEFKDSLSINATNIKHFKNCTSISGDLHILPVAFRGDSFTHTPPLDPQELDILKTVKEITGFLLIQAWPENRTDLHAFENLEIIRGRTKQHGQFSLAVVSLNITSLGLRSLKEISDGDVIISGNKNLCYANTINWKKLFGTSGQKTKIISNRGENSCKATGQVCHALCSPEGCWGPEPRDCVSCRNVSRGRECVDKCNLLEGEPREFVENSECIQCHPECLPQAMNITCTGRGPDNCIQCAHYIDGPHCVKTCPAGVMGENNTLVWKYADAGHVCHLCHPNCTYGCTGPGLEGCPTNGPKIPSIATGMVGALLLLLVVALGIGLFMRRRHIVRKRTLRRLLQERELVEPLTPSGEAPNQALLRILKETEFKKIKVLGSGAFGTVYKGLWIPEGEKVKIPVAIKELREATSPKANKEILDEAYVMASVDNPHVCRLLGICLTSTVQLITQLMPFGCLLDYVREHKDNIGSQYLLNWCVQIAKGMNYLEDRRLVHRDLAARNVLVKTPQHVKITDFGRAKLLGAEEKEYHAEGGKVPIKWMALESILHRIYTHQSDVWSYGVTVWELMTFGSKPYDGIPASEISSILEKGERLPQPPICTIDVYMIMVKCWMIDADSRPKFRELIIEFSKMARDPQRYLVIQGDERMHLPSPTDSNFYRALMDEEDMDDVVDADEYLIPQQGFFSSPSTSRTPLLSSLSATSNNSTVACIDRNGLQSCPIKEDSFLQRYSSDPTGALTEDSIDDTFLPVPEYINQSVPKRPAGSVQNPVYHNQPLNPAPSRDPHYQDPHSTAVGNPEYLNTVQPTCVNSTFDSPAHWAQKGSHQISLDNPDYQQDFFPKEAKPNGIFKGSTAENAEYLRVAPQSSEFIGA

SMILES	IC50 (EGFR wild type; [3]) [nM]	GI50 (A-431; [4]) [µM]	IC50 (EGFR[T790M/C797S/L858R]; [5]) [nM]	GI50 (PC-9; Homo sapiens, PC-9, 72 h) [nM]	GI50 [2, 9] [nM]	GI50 [2, 10] [nM]	GI50 [2, 11] [nM]	GI50 [2, 12] [nM]	GI50 [2, 13] [nM]	GI50 [2, 14] [nM]	GI50 [2, 15] [nM]	IC50 (EGFR wild type; [20]) [nM]	IC50 (EGFR[T790M/C797S/L858R]; [21]) [nM]	IC50 (EGFR (d746-750 C797S); [22]) [nM]	IC50 [1, 23] [nM]	IC50 (EGFR L858R/T790M; [24]) [nM]	IC50 (EGFR (C797S L858R); [32]) [nM]	IC50 (EGFR L858R; [33]) [nM]	IC50 (EGFR Exon19Del; [34]) [nM]	IC50 (EGFR Exon19Del/T790M; [35]) [nM]	further results
CN(C)[C@@H]1CCN(c2ccc3nc4n(c3c2)C23CCC(CC2)CN(CCOc2c(cnn2C)-c2cc(cn(C)c2=O)C(=O)N4)C3)C1 [Example A121]	> 5000	4.97	154	27	7.8	44	35	15	61	12	25										IC50 (EGFR (d746-750 C797S); [6]): 19 nM; IC50 [1, 7]: 10 nM; IC50 (EGFR L858R/T790M; [8]): 477 nM; IC50 (EGFR (C797S L858R); [16]): 101 nM; IC50 (EGFR L858R; [17]): 167 nM; IC50 (EGFR Exon19Del; [18]): 25 nM; IC50 (EGFR Exon19Del/T790M; [19]): 21 nM
Cc1cc2cc(n1)-c1cnn(C)c1OCCN1CC3CCC(C3)(C1)n1c(nc3ccc(N4CCN(C5COC5)CC4)cc31)NC2=O (single isomer, unassigned) [Example B58A]												> 5000	> 5000	3890	> 5000	> 5000	> 5000	> 5000	> 5000	> 5000	GI50 (A-431; A-431 cells): 8.61 µM; GI50 (PC-9): 737 nM; GI50 [2, 25]: 163 nM; GI50 [2, 26]: 229 nM; GI50 [2, 27]: 828 nM; GI50 [2, 28]: 90 nM; GI50 [2, 29]: 307 nM; GI50 [2, 30]: 1560 nM; GI50 [2, 31]: 378 nM
Cn1ncc2c1OCCN1CC3CCC(CC3)(C1)n1c(nc3ccc(N4CCN(C5CC5)CC4)cc31)NC(=O)c1cc-2c(=O)n(C)c1 [Example A128]	> 5000	2.65	33	61	13	90	65	47	119	11	66										IC50 (EGFR (d746-750 C797S); [6]): 4.9 nM; IC50 [1, 7]: 4.7 nM; IC50 (EGFR L858R/T790M; [8]): 307 nM; IC50 (EGFR (C797S L858R); [16]): 49 nM; IC50 (EGFR L858R; [17]): 202 nM; IC50 (EGFR Exon19Del; [18]): 11 nM; IC50 (EGFR Exon19Del/T790M; [19]): 8 nM
Cc1cc2cc(n1)-c1cnn(C)c1OCCN1CC3CCC(C3)(C1)n1c(nc3ccc(N4CC(N5CCOCC5)C4)cc31)NC2=O (single isomer, unassigned) [Example B48A]												> 5000	> 5000	1020	> 5000	> 5000	2920	> 5000	2240	> 5000	GI50 (A-431; A-431 cells): 7 µM; GI50 (PC-9): 973 nM; GI50 [2, 25]: 114 nM; GI50 [2, 26]: 172 nM; GI50 [2, 27]: 426 nM; GI50 [2, 28]: 34 nM; GI50 [2, 29]: 168 nM; GI50 [2, 30]: 846 nM; GI50 [2, 31]: 140 nM
Cc1cc2cc(n1)-c1cnn(C)c1OCCN1CC3CCC(C3)(C1)n1c(nc3ccc(N4CCN(C)CC4)cc31)NC2=O (stereo not drawn) [Example B9B, 15,21-Dimethyl-5-(4-methylpiperazin-1-yl)-23-oxa-2,9,11,16,20,21,26-heptaazaheptacyclo[24.4.1.1^{1,28}.1^{13,17}.0^{2,10}.0^{3,8}.0^{18,22}]tritriaconta-3,5,7,9,13,15,17(33),18(22),19-nonaen-12-one]		0.366		6.1	0.58	0.59	3.2	0.6	0.83	2.7	0.6	114	1	0.73	1.4	1.1	3.3	7.4	1.4	1.3	
